Molecular target: T1, human recombinant P2X7 receptors (Homo sapiens, UniProt Q99572)
T1 construct: expressed in transfected cells
T1 sequence (Q99572 1-595): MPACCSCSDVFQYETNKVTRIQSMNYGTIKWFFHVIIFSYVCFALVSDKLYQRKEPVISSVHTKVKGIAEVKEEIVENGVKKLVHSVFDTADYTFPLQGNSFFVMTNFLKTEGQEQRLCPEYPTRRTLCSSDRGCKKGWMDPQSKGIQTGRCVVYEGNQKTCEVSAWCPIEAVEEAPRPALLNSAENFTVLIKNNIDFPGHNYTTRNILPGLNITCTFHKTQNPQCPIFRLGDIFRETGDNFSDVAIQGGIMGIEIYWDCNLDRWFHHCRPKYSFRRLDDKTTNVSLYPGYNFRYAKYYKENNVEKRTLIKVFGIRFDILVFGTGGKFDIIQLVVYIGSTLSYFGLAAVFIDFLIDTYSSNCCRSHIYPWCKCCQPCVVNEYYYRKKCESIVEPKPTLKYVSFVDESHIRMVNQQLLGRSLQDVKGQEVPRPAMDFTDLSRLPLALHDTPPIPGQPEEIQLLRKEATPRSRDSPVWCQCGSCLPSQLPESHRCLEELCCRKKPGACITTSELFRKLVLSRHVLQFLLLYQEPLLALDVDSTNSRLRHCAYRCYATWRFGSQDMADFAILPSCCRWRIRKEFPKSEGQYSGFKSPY
Experiment: Ethidium Accumulation Assay 2 (HEK293 cells, ATP-induced ethidium uptake)
Type: cell-based
Conditions: HEK293 cells expressing human P2X7; read-out: Assay 2 (antagonist pIC50 for blocking ATP responses), numeric value (converted)
Method: Eithidium Accumulation Assay 2
Human Embryonic Kidney (HEK) 293 cells, stably expressing human recombinant P2X7 receptors, were grown in poly-D-lysine pretreated 96 well plates for 24 hours at 37° C.
The cells were washed with assay buffer (100 μL), before addition of 25 μL of assay buffer and then 25 ul of assay buffer containing the putative P2X7 receptor antagonist compound. The cells were then incubated at room temperature (19-21° C.) for 30 min before addition of ATP solution (50 μM). […] Antagonist pIC50 values for blocking ATP responses were determined using iterative curve fitting techniques.

Row | IC50 | SMILES
1 | 631 nM | Cc1nnsc1-c1nnc2n1CCN(C(=O)c1ccc(Cl)c(F)c1Cl)C2 [Example 179, 7-[(2,4-Dichloro-3-fluorophenyl)carbonyl]-3-(4-methyl-1,2,3-thiadiazol-5-yl)-5,6,7,8-tetrahydro[1,2,4]triazolo[4,3-a]pyrazine]

Same assay, conditions: HEK293 cells expressing human P2X7; sometimes mean of more than one measurement; read-out: Assay 2 (antagonist pIC50 for blocking ATP responses) (converted)

Row | SMILES | IC50
2 | O=C(c1cccc(Cl)c1Cl)N1CCn2c(nnc2-c2ncns2)C1 [Example 192, 7-[(2,3-Dichlorophenyl)carbonyl]-3-(1,2,4-thiadiazol-5-yl)-5,6,7,8-tetrahydro [1,2,4]triazolo[4,3-a]pyrazine] | < 10 nM
3 | Cc1cc(Cl)ccc1C(=O)N1CCn2c(nnc2-c2cnccn2)C1 [Example 145, 7-[(4-chloro-2-methylphenyl)carbonyl]-3-(2-pyrazinyl)-5,6,7,8-tetrahydro[1,2,4]triazolo[4,3-a]pyrazine] | < 100 nM
4 | O=C(c1ccc(Cl)c(F)c1Cl)N1CCn2c(nnc2-n2cccn2)C1 [Example 184, 7-[(2,4-Dichloro-3-fluorophenyl)carbonyl]-3-(1H-pyrazol-1-yl)-5,6,7,8-tetrahydro[1,2,4]triazolo[4,3-a]pyrazine] | < 100 nM
5 | Cc1ccc(C(=O)N2CCn3c(nnc3-c3cnccn3)C2)c(C(F)(F)F)c1 [Example 148, 7-{[4-methyl-2-(trifluoromethyl)phenyl]carbonyl}-3-(2-pyrazinyl)-5,6,7,8-tetrahydro[1,2,4]triazolo[4,3-a]pyrazine] | < 501 nM
6 | O=C(c1ccc(Cl)c(F)c1Cl)N1CCn2c(nnc2-c2ccc(F)cc2O)C1 [Example 150, 2-{7-[(2,4-dichloro-3-fluorophenyl)carbonyl]-5,6,7,8-tetrahydro[1,2,4]triazolo[4,3-a]pyrazin-3-yl}-5-fluorophenol] | < 100 nM
7 | Cc1ccc(-c2nnc3n2CCN(C(=O)c2cccc(C(F)(F)F)c2Cl)C3)o1 [Example 159, 7-{[2-chloro-3-(trifluoromethyl)phenyl]carbonyl}-3-(5-methyl-2-furanyl)-5,6,7,8-tetrahydro[1,2,4]triazolo[4,3-a]pyrazine] | < 10 nM
8 | Cc1cnc(-c2nnc3n2CCN(C(=O)c2ccc(Cl)c(F)c2Cl)C3)s1 [Example 188, 7-[(2,4-Dichloro-3-fluorophenyl)carbonyl]-3-(5-methyl-1,3-thiazol-2-yl)-5,6,7,8-tetrahydro[1,2,4]triazolo[4,3-a]pyrazine] | < 100 nM
9 | O=C(c1ccc(F)cc1Cl)N1CCn2c(nnc2-c2cnc(F)cn2)C1 [Example 165, 7-[(2-chloro-4-fluorophenyl)carbonyl]-3-(5-fluoro-2-pyrazinyl)-5,6,7,8-tetrahydro[1,2,4]triazolo[4,3-a]pyrazine] | < 100 nM
10 | Cc1scnc1-c1nnc2n1CCN(C(=O)c1ccc(Cl)c(F)c1Cl)C2 [Example 197, 7-[(2,4-Dichloro-3-fluorophenyl)carbonyl]-3-(5-methyl-1,3-thiazol-4-yl)-5,6,7,8-tetrahydro[1,2,4]triazolo[4,3-a]pyrazine] | < 10 nM
11 | Cc1c(Cl)cccc1C(=O)N1CCn2c(nnc2-c2ncns2)C1 [Example 195, 7-[(3-Chloro-2-methylphenyl)carbonyl]-3-(1,2,4-thiadiazol-5-yl)-5,6,7,8-tetrahydro[1,2,4]triazolo[4,3-a]pyrazine] | < 10 nM
12 | Cc1scnc1-c1nnc2n1CCN(C(=O)c1cccc(Cl)c1C)C2 [Example 207, 7-[(3-chloro-2-methylphenyl)carbonyl]-3-(5-methyl-1,3-thiazol-4-yl)-5,6,7,8-tetrahydro[1,2,4]triazolo[4,3-a]pyrazine] | < 100 nM
13 | O=C(c1cccc(C(F)(F)F)c1Cl)N1CCn2c(nnc2-c2cccnc2O)C1 [Example 163, 3-(7-{[2-chloro-3-(trifluoromethyl)phenyl]carbonyl}-5,6,7,8-tetrahydro[1,2,4]triazolo[4,3-a]pyrazin-3-yl)-2-pyridinol] | < 100 nM
14 | O=C(c1ccc(F)cc1Br)N1CCn2c(nnc2-c2cnccn2)C1 [Example 147, 7-[(2-bromo-4-fluorophenyl)carbonyl]-3-(2-pyrazinyl)-5,6,7,8-tetrahydro[1,2,4]triazolo[4,3-a]pyrazine] | < 10 nM

Now from value to compound:

Row | IC50 | SMILES
15 | < 10 nM | Cc1c(C(=O)N2CCn3c(nnc3-c3nccs3)C2)ccc(F)c1Cl [Example 201, 7-[(3-Chloro-4-fluoro-2-methylphenyl)carbonyl]-3-(1,3-thiazol-2-yl)-5,6,7,8-tetrahydro[1,2,4]triazolo[4,3-a]pyrazine]
16 | < 10 nM | Cc1c(F)ccc(C(=O)N2CCn3c(nnc3-c3cnccn3)C2)c1Cl [Example 153, 7-[(2-chloro-4-fluoro-3-methylphenyl)carbonyl]-3-(2-pyrazinyl)-5,6,7,8-tetrahydro[1,2,4]triazolo[4,3-a]pyrazine]
17 | < 10 nM | O=C(c1ccc(Cl)c(F)c1Cl)N1CCn2c(nnc2-c2ccccn2)C1 [Example 173, 7-[(2,4-dichloro-3-fluorophenyl)carbonyl]-3-(2-pyridinyl)-5,6,7,8-tetrahydro[1,2,4]triazolo[4,3-a]pyrazine]
18 | < 100 nM | O=C(c1ccc(Cl)c(F)c1Cl)N1CCn2c(nnc2-c2cccnc2O)C1 [Example 171, 3-{7-[(2,4-dichloro-3-fluorophenyl)carbonyl]-5,6,7,8-tetrahydro[1,2,4]triazolo[4,3-a]pyrazin-3-yl}-2-pyridinol]
19 | < 10 nM | O=C(c1ccc(Cl)c(F)c1Cl)N1CCn2c(nnc2-c2cnsn2)C1 [Example 190, 7-[(2,4-Dichloro-3-fluorophenyl)carbonyl]-3-(1,2,5-thiadiazol-3-yl)-5,6,7,8-tetrahydro[1,2,4]triazolo[4,3-a]pyrazine]
20 | < 100 nM | O=C(c1ccc(Cl)c(F)c1Cl)N1CCn2c(nnc2-c2ccns2)C1 [Example 178, 7-[(2,4-dichloro-3-fluorophenyl)carbonyl]-3-(5-isothiazolyl)-5,6,7,8-tetrahydro[1,2,4]triazolo[4,3-a]pyrazine]
21 | < 100 nM | O=C(c1ccc(Cl)cc1Cl)N1CCn2c(nnc2-c2cnsn2)C1 [Example 160, 7-[(2,4-dichlorophenyl)carbonyl]-3-(1,2,5-thiadiazol-3-yl)-5,6,7,8-tetrahydro[1,2,4]triazolo[4,3-a]pyrazine]
22 | < 10 nM | Cc1ccc(C(=O)N2CCn3c(nnc3-c3cnccn3)C2)c(Cl)c1Cl [Example 152, 7-[(2,3-dichloro-4-methylphenyl)carbonyl]-3-(2-pyrazinyl)-5,6,7,8-tetrahydro[1,2,4]triazolo[4,3-a]pyrazine]
23 | < 501 nM | O=C(c1ccc(Cl)cc1Cl)N1CCn2c(nnc2-c2ccon2)C1 [Example 161, 7-[(2,4-dichlorophenyl)carbonyl]-3-(3-isoxazolyl)-5,6,7,8-tetrahydro[1,2,4]triazolo[4,3-a]pyrazine]
24 | < 100 nM | O=C(c1ccc(F)c(Cl)c1Cl)N1CCn2c(nnc2-c2cccnn2)C1 [Example 168, 7-[(2,3-Dichloro-4-fluorophenyl)carbonyl]-3-(3-pyridazinyl)-5,6,7,8-tetrahydro[1,2,4]triazolo[4,3-a]pyrazine]
25 | < 100 nM | Cc1ccnc(-c2nnc3n2CCN(C(=O)c2ccc(Cl)c(F)c2Cl)C3)c1 [Example 172, 7-[(2,4-dichloro-3-fluorophenyl)carbonyl]-3-(4-methyl-2-pyridinyl)-5,6,7,8-tetrahydro[1,2,4]triazolo[4,3-a]pyrazine]
26 | < 10 nM | Cc1c(C(=O)N2CCn3c(nnc3-c3ccc(F)cn3)C2)ccc(F)c1Cl [Example 156, 7-[(3-chloro-4-fluoro-2-methylphenyl)carbonyl]-3-(5-fluoro-2-pyridinyl)-5,6,7,8-tetrahydro[1,2,4]triazolo[4,3-a]pyrazine]
27 | < 10 nM | COc1ccnc(-c2nnc3n2CCN(C(=O)c2ccc(Cl)c(F)c2Cl)C3)c1 [Example 174, 7-[(2,4-dichloro-3-fluorophenyl)carbonyl]-3-[4-(methyloxy)-2-pyridinyl]-5,6,7,8-tetrahydro[1,2,4]triazolo[4,3-a]pyrazine]
28 | < 100 nM | Cc1ccc(-c2nnc3n2CCN(C(=O)c2ccc(F)c(Cl)c2Cl)C3)o1 [Example 167, 7-[(2,3-Dichloro-4-fluorophenyl)carbonyl]-3-(5-methyl-2-furanyl)-5,6,7,8-tetrahydro[1,2,4]triazolo[4,3-a]pyrazine]
29 | < 10 nM | Cc1c(C(=O)N2CCn3c(nnc3-c3ncns3)C2)ccc(F)c1Cl [Example 193, 7-[(3-Chloro-4-fluoro-2-methylphenyl)carbonyl]-3-(1,2,4-thiadiazol-5-yl)-5,6,7,8-tetrahydro[1,2,4]triazolo[4,3-a]pyrazine]
30 | < 10 nM | [2H]c1ccnc(-c2nnc3n2CCN(C(=O)c2ccc(Cl)c(F)c2Cl)C3)c1 [Example 182, 7-[(2,4-Dichloro-3-fluorophenyl)carbonyl]-3-(2-pyridinyl)-5,6,7,8-tetrahydro[1,2,4]triazolo[4,3-a]pyrazine-d1]
